Assays:
Assay type in all cases: cell-based
E. coli BL21 = test: MIC against Gram-negative bacteria: E. coli BL21
In short: (§1)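 Read-out is absence of bacterial growth, with MIC set at the lowest recombinant protein concentration achieving it. Bacteria, pre-grown in LB to McFarland 0.5 and resuspended, were exposed at 5×10^5 CFU/mL to two-fold diluted human EGF domain proteins in triplicate at 37° C, 175 rpm.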

Proteus mirabilis = test: MIC against Gram-negative bacteria: Proteus mirabilis
In short: as §1

Pseudomonas aeruginosa = test: MIC against Gram-negative bacteria: Pseudomonas aeruginosa
In short: as §1

Aeromonas hydrophila = test: MIC against Gram-negative bacteria: Aeromonas hydrophila
In short: as §1

Enterobacter cloacae = test: MIC against Gram-negative bacteria: Enterobacter cloacae
In short: as §1

Citrobacter diversus = test: MIC against Gram-negative bacteria: Citrobacter diversus
In short: as §1

Serratia marcescens = test: MIC against Gram-negative bacteria: Serratia marcescens
In short: as §1

Proteus vulgaris = test: MIC against Gram-negative bacteria: Proteus vulgaris
In short: as §1

Moraxella catarrhalis = test: MIC against Gram-negative bacteria: Moraxella catarrhalis
In short: as §1

E. coli DH5α = test: Antibacterial activity: MIC and growth curve against E. coli DH5α in 96-well plate; conditions: minimal inhibitory concentration against E. coli DH5α; 96-well plate, 5×10^5 CFU/mL, 37° C., judged after 8 h
In short: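 Log-phase bacteria (OD600 ~0.5) resuspended in LB at 5×10^5 CFU/mL, exposed to recombinant protein at 50, 25, 12.5 μg/mL final in triplicate, 37 °C shaking at 175 rpm. OD600 read every 30 min; MIC is lowest concentration showing no growth.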

Klebsiella pneumonia = test: MIC against Gram-negative bacteria: Klebsiella pneumonia
In short: as §1

[1] = E. coli BL21, 96-well plate, 5×10^5 CFU/mL, 37° C., 10 h
[2] = Proteus mirabilis, 96-well plate, 5×10^5 CFU/mL, 37° C., 10 h
[3] = Pseudomonas aeruginosa, 96-well plate, 5×10^5 CFU/mL, 37° C., 10 h
[4] = Aeromonas hydrophila, 96-well plate, 5×10^5 CFU/mL, 37° C., 10 h
[5] = Enterobacter cloacae, 96-well plate, 5×10^5 CFU/mL, 37° C., 10 h
[6] = Citrobacter diversus, 96-well plate, 5×10^5 CFU/mL, 37° C., 10 h
[7] = Serratia marcescens, 96-well plate, 5×10^5 CFU/mL, 37° C., 10 h
[8] = Proteus vulgaris, 96-well plate, 5×10^5 CFU/mL, 37° C., 10 h
[9] = Moraxella catarrhalis, 96-well plate, 5×10^5 CFU/mL, 37° C., 10 h
[10] = Klebsiella pneumonia, 96-well plate, 5×10^5 CFU/mL, 37° C., 10 h
[11] = 96-well plate, 5×10^5 CFU/mL, 37° C., 10 h

PRT1282 (SLDSCSSGPCENGGTCHAQEGEDAPFTCSCPTGFEGPTCG; listed as Homo sapiens)
25 µg/mL: MIC against E. cloacae (Enterobacter cloacae; [5]) | MIC against P. vulgaris (Proteus vulgaris; [8]) | MIC against M. catarrhalis (Moraxella catarrhalis; [9])
12.5 µg/mL: MIC against P. mirabilis (Proteus mirabilis; [2]) | MIC against P. aeruginosa (Pseudomonas aeruginosa; [3]) | MIC against A. hydrophila (Aeromonas hydrophila; [4]) | MIC (E. coli DH5α)
50 µg/mL: MIC against E. coli BL21 (E. coli BL21; [1]) | MIC against C. diversus (Citrobacter diversus; [6]) | MIC against S. marcescens (Serratia marcescens; [7]) | MIC against K. pneumonia (Klebsiella pneumonia; [10])

PRT237 (DINECTPPYSVYCGFNAVCYNVEGSFYCQCVPGYRLHSGNEQFSNSNENTCQ; listed as Homo sapiens)
12.5 µg/mL: MIC (μg/mL) E. coli BL21 (E. coli BL21; E. coli BL21, 10 h cultivation at 37° C., 5×10^5 CFU/mL) | MIC (μg/mL) A. hydrophila (Aeromonas hydrophila; A. hydrophila, 10 h cultivation at 37° C., 5×10^5 CFU/mL) | MIC (μg/mL) M. catarrhalis (Moraxella catarrhalis; M. catarrhalis, 10 h cultivation at 37° C., 5×10^5 CFU/mL) | MIC (μg/mL) K. pneumonia (Klebsiella pneumonia; K. pneumonia, 10 h cultivation at 37° C., 5×10^5 CFU/mL)
25 µg/mL: MIC (μg/mL) P. mirabilis (Proteus mirabilis; P. mirabilis, 10 h cultivation at 37° C., 5×10^5 CFU/mL) | MIC (μg/mL) P. aeruginosa (Pseudomonas aeruginosa; P. aeruginosa, 10 h cultivation at 37° C., 5×10^5 CFU/mL) | MIC (μg/mL) E. cloacae (Enterobacter cloacae; E. cloacae, 10 h cultivation at 37° C., 5×10^5 CFU/mL) | MIC (μg/mL) C. diversus (Citrobacter diversus; C. diversus, 10 h cultivation at 37° C., 5×10^5 CFU/mL) | MIC (μg/mL) P. vulgaris (Proteus vulgaris; P. vulgaris, 10 h cultivation at 37° C., 5×10^5 CFU/mL) | MIC (E. coli DH5α)
50 µg/mL: MIC (μg/mL) S. marcescens (Serratia marcescens; S. marcescens, 10 h cultivation at 37° C., 5×10^5 CFU/mL)

PRT968 (LEDPCHSGPCAGRGVCQSSVVAGTARFSCRCPRGFRGPDCS; listed as Homo sapiens)
50 µg/mL: MIC (Proteus mirabilis; P. mirabilis, 10 h cultivation at 37° C.)
25 µg/mL: MIC (Pseudomonas aeruginosa; P. aeruginosa, 10 h cultivation at 37° C.) | MIC (Aeromonas hydrophila; A. hydrophila, 10 h cultivation at 37° C.) | MIC (Enterobacter cloacae; E. cloacae, 10 h cultivation at 37° C.) | MIC (Proteus vulgaris; P. vulgaris, 10 h cultivation at 37° C.) | MIC (Moraxella catarrhalis; M. catarrhalis, 10 h cultivation at 37° C.) | MIC (E. coli DH5α)
12.5 µg/mL: MIC (E. coli BL21; E. coli BL21, 10 h cultivation at 37° C.) | MIC (Citrobacter diversus; C. diversus, 10 h cultivation at 37° C.) | MIC (Serratia marcescens; S. marcescens, 10 h cultivation at 37° C.) | MIC (Klebsiella pneumonia; K. pneumonia, 10 h cultivation at 37° C.)

PRT547 (CQCHGHSDRCLPGSGVCVDCQHNTEGAHCERCQAGFVSSRDDPSAPCVS; listed as Homo sapiens)
12.5 µg/mL: MIC against E. coli BL21 (E. coli BL21; [11]) | MIC against A. hydrophila (Aeromonas hydrophila; [11]) | MIC against P. vulgaris (Proteus vulgaris; [11])
50 µg/mL: MIC against M. catarrhalis (Moraxella catarrhalis; [11]) | MIC against K. pneumonia (Klebsiella pneumonia; [11])
25 µg/mL: MIC against P. mirabilis (Proteus mirabilis; [11]) | MIC against P. aeruginosa (Pseudomonas aeruginosa; [11]) | MIC against E. cloacae (Enterobacter cloacae; [11]) | MIC against C. diversus (Citrobacter diversus; [11]) | MIC against S. marcescens (Serratia marcescens; [11]) | MIC (E. coli DH5α)

PRT1388 (RDSCPVLCGGNGEYEKGHCVCRHGWKGPECDV; listed as Homo sapiens)
12.5 µg/mL: MIC against E. coli BL21 (E. coli BL21; E. coli BL21, 5×10^5 CFU/mL, 10 h cultivation at 37° C.) | MIC against P. mirabilis (Proteus mirabilis; Proteus mirabilis, 5×10^5 CFU/mL, 10 h cultivation at 37° C.) | MIC against P. aeruginosa (Pseudomonas aeruginosa; Pseudomonas aeruginosa, 5×10^5 CFU/mL, 10 h cultivation at 37° C.) | MIC against E. cloacae (Enterobacter cloacae; Enterobacter cloacae, 5×10^5 CFU/mL, 10 h cultivation at 37° C.) | MIC against C. diversus (Citrobacter diversus; Citrobacter diversus, 5×10^5 CFU/mL, 10 h cultivation at 37° C.) | MIC against S. marcescens (Serratia marcescens; Serratia marcescens, 5×10^5 CFU/mL, 10 h cultivation at 37° C.) | MIC against P. vulgaris (Proteus vulgaris; Proteus vulgaris, 5×10^5 CFU/mL, 10 h cultivation at 37° C.) | MIC against K. pneumonia (Klebsiella pneumonia; Klebsiella pneumonia, 5×10^5 CFU/mL, 10 h cultivation at 37° C.)
100 µg/mL: MIC (E. coli DH5α)
25 µg/mL: MIC against A. hydrophila (Aeromonas hydrophila; Aeromonas hydrophila, 5×10^5 CFU/mL, 10 h cultivation at 37° C.) | MIC against M. catarrhalis (Moraxella catarrhalis; Moraxella catarrhalis, 5×10^5 CFU/mL, 10 h cultivation at 37° C.)

PRT1283 (NTDDCVDHACANGGVCVDGVGNYTCQCPLQYEGKACE; listed as Homo sapiens)
12.5 µg/mL: MIC against P. aeruginosa (Pseudomonas aeruginosa; [3]) | MIC against A. hydrophila (Aeromonas hydrophila; [4]) | MIC against E. cloacae (Enterobacter cloacae; [5]) | MIC against P. vulgaris (Proteus vulgaris; [8]) | MIC against M. catarrhalis (Moraxella catarrhalis; [9]) | MIC (E. coli DH5α)
50 µg/mL: MIC against E. coli BL21 (E. coli BL21; [1]) | MIC against C. diversus (Citrobacter diversus; [6]) | MIC against K. pneumonia (Klebsiella pneumonia; [10])
25 µg/mL: MIC against P. mirabilis (Proteus mirabilis; [2]) | MIC against S. marcescens (Serratia marcescens; [7])

From patent US9833497B2, “Human originated EGF domain proteins and use of the same” (CHENGDU SOURCEBIO LIMITED-LIABILITY COMPANY, priority 2013, dated 2017)
